Test results as given in ChEMBL document CHEMBL1201862, “PubChem BioAssay data set” (2004).
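Five concentrations, 48 hours, 96-well plates. GI50 marks 50% less growth.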 Calls of active or inactive are those of the source. Rule as the data show it: active = GI50 up to about 1.1 µM and inactive = higher.

Experiments:
Assay in all cases: DTP human tumour cell line panel, 48 h
HT-29 = test system: HT-29
HCC 2998 = test system: HCC 2998
KM12 = test system: KM12
BT-549 = test system: BT-549
SF-268 = test system: SF-268
IGROV-1 = test system: IGROV-1
OVCAR-5 = test system: OVCAR-5
UO-31 = test system: UO-31
SNB-78 = test system: SNB-78
TK-10 = test system: TK-10
RPMI-8226 = test system: RPMI-8226
HCT-15 = test system: HCT-15
EKVX = test system: EKVX
MDA-MB-231 = test system: MDA-MB-231
UACC-257 = test system: UACC-257
SW-620 = test system: SW-620
SNB-19 = test system: SNB-19
MCF7 = test system: MCF7
MDA-MB-435 = test system: MDA-MB-435
UACC-62 = test system: UACC-62
SN12C = test system: SN12C
SF-539 = test system: SF-539
OVCAR-8 = test system: OVCAR-8
MDA-N = test system: MDA-N
KM-20L2 = test system: KM-20L2
OVCAR-4 = test system: OVCAR-4
Hs-578T = test system: Hs-578T
Malme-3M = test system: Malme-3M
RXF 393 = test system: RXF 393
LOX IMVI = test system: LOX IMVI
SK-MEL-28 = test system: SK-MEL-28
786-0 = test system: 786-0
XF498 = test system: XF498
NCI-H226 = test system: NCI-H226
CAKI-1 = test system: CAKI-1
NCI-H522 = test system: NCI-H522
SNB-75 = test system: SNB-75
NCI-H460 = test system: NCI-H460
SK-OV-3 = test system: SK-OV-3
MOLT-4 = test system: MOLT-4
HOP-62 = test system: HOP-62
LXFL 529 = test system: LXFL 529
A549 = test system: A549
ACHN = test system: ACHN
DMS-114 = test system: DMS-114
HOP-92 = test system: HOP-92
K562 = test system: K562
HOP-18 = test system: HOP-18
CCRF-CEM = test system: CCRF-CEM
COLO 205 = test system: COLO 205
M14 = test system: M14
SK-MEL-5 = test system: SK-MEL-5
U-251 = test system: U-251
NCI-H23 = test system: NCI-H23
HL-60 = test system: HL-60
SK-MEL-2 = test system: SK-MEL-2
SF-295 = test system: SF-295
T47D = test system: T47D
DU-145 = test system: DU-145
A498 = test system: A498
OVCAR-3 = test system: OVCAR-3
PC-3 = test system: PC-3
DMS-273 = test system: DMS-273
M19-MEL = test system: M19-MEL
HCT-116 = test system: HCT-116

Compound: COc1cc2c(c(OC)c1OC)-c1cccc(=O)cc1C(NC(C)=O)CC2 (stereo not given)
- GI50 (HT-29): 0.0721 µM (active)
- GI50 (HCC 2998): 0.075 µM (active)
- GI50 (KM12): 0.0346 µM (active)
- GI50 (BT-549): 0.437 µM (active)
- GI50 (SF-268): 0.128 µM (active)
- GI50 (IGROV-1): 0.166 µM (active)
- GI50 (OVCAR-5): 7.5 µM (inactive)
- GI50 (UO-31): 4.93 µM (inactive)
- GI50 (SNB-78): 0.0859 µM (active)
- GI50 (TK-10): > 28.2 µM (inactive)
- GI50 (RPMI-8226): 0.0267 µM (active)
- GI50 (HCT-15): 0.612 µM
- GI50 (EKVX): > 100 µM (inactive)
- GI50 (MDA-MB-231): 0.139 µM (active)
- GI50 (UACC-257): 0.0607 µM (active)
- GI50 (SW-620): 0.0408 µM (active)
- GI50 (SNB-19): 0.748 µM (active)
- GI50 (MCF7): < 0.01 µM (active)
- GI50 (MDA-MB-435): < 0.01 µM (active)
- GI50 (UACC-62): 0.0474 µM (active)
- GI50 (SN12C): 0.339 µM (active)
- GI50 (SF-539): 0.042 µM (active)
- GI50 (OVCAR-8): 0.2 µM (active)
- GI50 (MDA-N): < 0.01 µM (active)
- GI50 (KM-20L2): 0.12 µM (active)
- GI50 (OVCAR-4): 32.4 µM (inactive)
- GI50 (Hs-578T): > 100 µM (inactive)
- GI50 (Malme-3M): 0.0867 µM (active)
- GI50 (RXF 393): 0.0543 µM (active)
- GI50 (LOX IMVI): 0.0449 µM (active)
- GI50 (SK-MEL-28): 2.15 µM (inactive)
- GI50 (786-0): 0.136 µM (active)
- GI50 (XF498): 0.117 µM (active)
- GI50 (NCI-H226): 0.845 µM (active)
- GI50 (CAKI-1): 0.211 µM (active)
- GI50 (NCI-H522): 0.0382 µM (active)
- GI50 (SNB-75): 0.0391 µM (active)
- GI50 (NCI-H460): 0.123 µM (active)
- GI50 (SK-OV-3): 0.485 µM (active)
- GI50 (MOLT-4): 0.0553 µM (active)
- GI50 (HOP-62): 0.172 µM (active)
- GI50 (LXFL 529): 0.125 µM (active)
- GI50 (A549): 0.317 µM (active)
- GI50 (ACHN): 0.953 µM (active)
- GI50 (DMS-114): 0.0685 µM (active)
- GI50 (HOP-92): 0.0863 µM (active)
- GI50 (K562): 0.0335 µM (active)
- GI50 (HOP-18): > 100 µM (inactive)
- GI50 (CCRF-CEM): 0.0414 µM (active)
- GI50 (COLO 205): 0.054 µM (active)
- GI50 (M14): 0.0621 µM (active)
- GI50 (SK-MEL-5): 0.0397 µM (active)
- GI50 (U-251): 0.0771 µM (active)
- GI50 (NCI-H23): 0.0596 µM (active)
- GI50 (HL-60): 0.0208 µM (active)
- GI50 (SK-MEL-2): 0.0698 µM (active)
- GI50 (SF-295): 0.0792 µM (active)
- GI50 (T47D): > 100 µM (inactive)
- GI50 (DU-145): 0.0624 µM (active)
- GI50 (A498): 0.332 µM (active)
- GI50 (OVCAR-3): 0.0463 µM (active)
- GI50 (PC-3): 0.0152 µM (active)
- GI50 (DMS-273): 0.0509 µM (active)
- GI50 (M19-MEL): 0.605 µM (active)
- GI50 (HCT-116): 0.055 µM (active)

Compound: Cc1c2cc[n+](C)cc2c(C)c2c1[nH]c1ccc(OC(C)C)cc12
- GI50 (HT-29): 3.06 µM (inactive)
- GI50 (KM12): 1.62 µM (inactive)
- GI50 (SF-268): 0.474 µM (active)
- GI50 (IGROV-1): 1.9 µM (inactive)
- GI50 (OVCAR-5): 10.9 µM (inactive)
- GI50 (UO-31): 44.1 µM (inactive)
- GI50 (TK-10): 19.8 µM (inactive)
- GI50 (RPMI-8226): 6.1 µM (inactive)
- GI50 (HCT-15): > 100 µM
- GI50 (EKVX): 6.62 µM (inactive)
- GI50 (UACC-257): 2.37 µM (inactive)
- GI50 (SW-620): 2.49 µM (inactive)
- GI50 (UACC-62): 2.51 µM (inactive)
- GI50 (SN12C): 0.392 µM (active)
- GI50 (SF-539): 1.39 µM (inactive)
- GI50 (KM-20L2): 3.58 µM (inactive)
- GI50 (OVCAR-4): 2.16 µM (inactive)
- GI50 (Malme-3M): 1.34 µM (inactive)
- GI50 (LOX IMVI): 4.19 µM (inactive)
- GI50 (SK-MEL-28): 2.97 µM (inactive)
- GI50 (NCI-H522): 1.47 µM (inactive)
- GI50 (SNB-75): 0.239 µM (active)
- GI50 (NCI-H460): 2.15 µM (inactive)
- GI50 (MOLT-4): 3.16 µM (inactive)
- GI50 (LXFL 529): 0.515 µM (active)
- GI50 (A549): 2.01 µM (inactive)
- GI50 (ACHN): 11.6 µM (inactive)
- GI50 (HOP-92): 2.6 µM (inactive)
- GI50 (HOP-18): 2.54 µM (inactive)
- GI50 (COLO 205): 1.28 µM (inactive)
- GI50 (M14): 6.34 µM (inactive)
- GI50 (SK-MEL-5): 1.4 µM (inactive)
- GI50 (NCI-H23): 1.41 µM (inactive)
- GI50 (HL-60): 2.56 µM (inactive)
- GI50 (SK-MEL-2): 1.66 µM (inactive)
- GI50 (A498): 6.35 µM (inactive)
- GI50 (OVCAR-3): 1.9 µM (inactive)
- GI50 (DMS-273): 2.19 µM (inactive)
- GI50 (M19-MEL): 1.64 µM (inactive)
- GI50 (HCT-116): 2.91 µM (inactive)
